# Experiments:
# [1] = system: control sera (pooled serum of ten healthy LUMC hospital workers; commercial negative donor pooled serum from the Dutch bloodbank); assay type: binding, human; set-up: Binding of Control serum LUMC to linear peptides / Binding of Control serum Blood-bank to linear peptides / Binding of Control serum LUMC to looped peptides / Binding of Control Serum Blood-Bank to Looped peptides / Binding of Control serum LUMC to linear peptides of the protein M of SARS-CoV Urbani / Binding of Control serum Blood-bank to linear peptides of the protein M of SARS-CoV Urbani / Binding of Control serum LUMC to looped peptides of the protein M of SARS-CoV Urbani / Binding of Control Serum Blood-Bank to Looped peptides of the protein M of SARS-CoV Urbani: unit not given here
# [2] = system: recombinant human anti-SARS-CoV antibody 03-018; assay type: binding; set-up: Binding of antibody 03-018 to linear peptides of the N protein of SARS-CoV Urbani / Binding of antibody 03-018 to looped/cyclic peptides of the N protein of SARS-CoV Urbani: unit not given here
# [3] = system: rabbit serum obtained by immunizing a rabbit with the SARS-CoV strain Frankfurt 1; assay type: binding; set-up: Binding of a rabbit serum to linear peptides / Binding of a rabbit serum to looped peptides / Rabbit serum linear peptides / Rabbit serum looped peptides / Binding of a rabbit serum to linear peptides of protein N of SARS-CoV Urbani (Rabbit serum linear peptides) / Binding of a rabbit serum to looped/cyclic peptides of protein N of SARS-CoV Urbani (Rabbit serum looped peptides): unit not given here
# [4] = system: antibodies in sera from SARS patients (sera 1a, 1b, 2, 6, 37, 62, London, SARS-yellow, SARS-green); assay type: binding, human; set-up: Binding of serum 6 to linear peptides of protein X1 of SARS-CoV Urbani / Binding of serum 37 to linear peptides of protein X1 of SARS-CoV Urbani / Binding of serum 6 to looped/cyclic peptide (PEPSCAN-ELISA) / Binding of serum 37 to looped/cyclic peptide (PEPSCAN-ELISA) / Binding of serum 37 to looped/cyclic peptides of protein X1 of SARS-CoV Urbani / Binding of serum 6 to linear peptides of protein X2 / Binding of serum 37 to linear peptides of protein X2 / Binding of serum 37 to looped/cyclic peptides of protein X2 of SARS-CoV Urbani / Binding of serum 6 to linear peptides of protein M of SARS-CoV Urbani / Binding of serum 37 to linear peptides of protein M of SARS-CoV Urbani / Binding of serum 6 to looped/cyclic peptides of protein M of SARS-CoV Urbani / Binding of serum 37 to looped/cyclic peptides of protein M of SARS-CoV Urbani / Binding of serum 6 to linear peptides of protein X3 of SARS-CoV Urbani / Binding of serum 37 to linear peptides of protein X3 of SARS-CoV Urbani / Binding of serum 37 to looped/cyclic peptides of protein X3 of SARS-CoV Urbani / Binding of serum 6 to linear peptides of protein X4 of SARS-CoV Urbani / Binding of serum 37 to linear peptides of protein X4 of SARS-CoV Urbani / Binding of serum 37 to looped/cyclic peptides of protein X4 of SARS-CoV Urbani / Binding of serum 6 to linear peptides of protein X5 of SARS-CoV Urbani / Binding of serum 37 to linear peptides of protein X5 of SARS-CoV Urbani / Binding of serum 37 to looped/cyclic peptides of protein X5 of SARS-CoV Urbani / Binding of serum 6 to linear peptides of protein N of SARS-CoV Urbani / Binding of serum 37 to linear peptides of protein N of SARS-CoV Urbani / Binding of serum 6 to linear peptide (PEPSCAN-ELISA) / Binding of serum 1a to looped/cyclic peptides of protein N of SARS-CoV Urbani / Binding of serum 1b to looped/cyclic peptides of protein N of SARS-CoV Urbani / Binding of serum 2 to looped/cyclic peptides of protein N of SARS-CoV Urbani / Binding of serum 6 to looped/cyclic peptides of protein N of SARS-CoV Urbani / Binding of serum 37 to looped/cyclic peptides of protein N of SARS-CoV Urbani / Binding of serum 62 to looped/cyclic peptides of protein N of SARS-CoV Urbani / Binding of serum London to looped/cyclic peptides of protein N of SARS-CoV Urbani / Binding of serum SARS-green to looped/cyclic peptides of protein N of SARS-CoV Urbani: unit not given here
Sequence,Binding of Control Serum Blood-Bank to Looped peptides [1],Binding of Control serum Blood-bank to linear peptides [1],Binding of Control serum LUMC to linear peptides [1],Binding of Control serum LUMC to looped peptides [1],Binding of antibody 03-018 to linear peptides of the N protein of SARS-CoV Urbani [2],Binding of antibody 03-018 to looped/cyclic peptides of the N protein of SARS-CoV Urbani [2],Binding of a rabbit serum to linear peptides of protein N of SARS-CoV Urbani (Rabbit serum linear peptides) [3],Binding of a rabbit serum to looped/cyclic peptides of protein N of SARS-CoV Urbani (Rabbit serum looped peptides) [3],Binding of serum 1a to looped/cyclic peptides of protein N of SARS-CoV Urbani [4],Binding of serum 1b to looped/cyclic peptides of protein N of SARS-CoV Urbani [4],Binding of serum 2 to looped/cyclic peptides of protein N of SARS-CoV Urbani [4],Binding of serum 6 to looped/cyclic peptides of protein N of SARS-CoV Urbani [4],Binding of serum 37 to looped/cyclic peptides of protein N of SARS-CoV Urbani [4],Binding of serum 62 to looped/cyclic peptides of protein N of SARS-CoV Urbani [4],Binding of serum London to looped/cyclic peptides of protein N of SARS-CoV Urbani [4],Binding of serum SARS-green to looped/cyclic peptides of protein N of SARS-CoV Urbani [4],Binding of serum SARS-yellow to looped/cyclic peptides of protein N of SARS-CoV Urbani [4],Binding of serum 1a to linear peptides of protein N of SARS-CoV Urbani [4],Binding of serum 1b to linear peptides of protein N of SARS-CoV Urbani [4],Binding of serum 2 to linear peptides of protein N of SARS-CoV Urbani [4],also measured
GETALALLLLDRLNQ,0.7,0.6,0.6,0.7,0.1,0.3,0.2,0.6,0.4,0.2,0.4,0.2,0.7,0.7,0.5,0.3,0.6,–,–,–,Binding of serum 1a to linear peptide (PEPSCAN-ELISA) [4]: 0.2; Binding of serum 1b to linear peptide (PEPSCAN-ELISA) [4]: 0.1; Binding of serum 2 to linear peptide (PEPSCAN-ELISA) [4]: 0.2; Binding of serum 6 to linear peptide (PEPSCAN-ELISA) [4]: 0.1; Binding of serum 37 to linear peptide (PEPSCAN-ELISA) [4]: 0.5; Binding of serum 62 to linear peptide (PEPSCAN-ELISA) [4]: 0.6; Binding of serum London to linear peptide (PEPSCAN-ELISA) [4]: 0.5; Binding of serum SARS-green to linear peptide (PEPSCAN-ELISA) [4]: 0.2; Binding of serum SARS-yellow to linear peptide (PEPSCAN-ELISA) [4]: 0.6
PRITFGGPTDSTDNN,0.6,0.6,0.5,0.6,–,–,0.3,0.4,0.3,0.2,0.3,0.2,0.7,0.5,0.3,0.8,0.4,0.2,0.1,0.2,Recognition of the peptide by antibody 03-018 [2]: recognized; Binding of serum 6 to linear peptides of protein N of SARS-CoV Urbani [4]: 0.1; Binding of serum 37 to linear peptides of protein N of SARS-CoV Urbani [4]: 0.7; Binding of serum 62 to linear peptides of protein N of SARS-CoV Urbani [4]: 0.6; Binding of serum London to linear peptides of protein N of SARS-CoV Urbani [4]: 0.5; Binding of serum SARS-green to linear peptides of protein N of SARS-CoV Urbani [4]: 0.6; Binding of serum SARS-yellow to linear peptides of protein N of SARS-CoV Urbani [4]: 0.3
YKTFPPTEPKKDKKK,–,–,–,–,0.1,0.2,0.2,0.2,0.2,0.1,0.1,0.0,0.4,0.2,0.3,0.0,0.2,0.2,0.1,0.5,Control Serum Blood-Bank Looped peptides [1]: 0.3; Control serum Blood-bank linear peptides [1]: 0.7; Control serum LUMC linear peptides [1]: 0.6; Control serum LUMC looped peptides [1]: 0.3; Binding of serum 6 to linear peptides of protein N of SARS-CoV Urbani [4]: 0.2; Binding of serum 37 to linear peptides of protein N of SARS-CoV Urbani [4]: 0.7; Binding of serum 62 to linear peptides of protein N of SARS-CoV Urbani [4]: 0.7; Binding of serum London to linear peptides of protein N of SARS-CoV Urbani [4]: 0.5; Binding of serum SARS-green to linear peptides of protein N of SARS-CoV Urbani [4]: 0.2; Binding of serum SARS-yellow to linear peptides of protein N of SARS-CoV Urbani [4]: 0.8
YYLGTGPEASLPYGA,0.8,0.7,0.7,0.8,0.1,0.2,0.1,0.5,0.4,0.4,0.4,0.3,0.9,0.7,0.5,0.5,0.7,0.3,0.2,0.2,Binding of serum 6 to linear peptides of protein N of SARS-CoV Urbani [4]: 0.2; Binding of serum 37 to linear peptides of protein N of SARS-CoV Urbani [4]: 0.7; Binding of serum 62 to linear peptides of protein N of SARS-CoV Urbani [4]: 0.7; Binding of serum London to linear peptides of protein N of SARS-CoV Urbani [4]: 0.4; Binding of serum SARS-green to linear peptides of protein N of SARS-CoV Urbani [4]: 0.2; Binding of serum SARS-yellow to linear peptides of protein N of SARS-CoV Urbani [4]: 0.8
TKQYNVTQAFGRRGP,0.9,0.8,0.8,0.9,0.1,0.3,–,–,0.4,0.2,0.5,0.3,0.7,0.7,0.5,0.4,0.6,–,–,–,Recognition of the peptide by the rabbit serum [3]: recognized; Binding of serum 1a to linear peptide (PEPSCAN-ELISA) [4]: 0.3; Binding of serum 1b to linear peptide (PEPSCAN-ELISA) [4]: 0.1; Binding of serum 2 to linear peptide (PEPSCAN-ELISA) [4]: 0.2; Binding of serum 6 to linear peptide (PEPSCAN-ELISA) [4]: 0.2; Binding of serum 37 to linear peptide (PEPSCAN-ELISA) [4]: 0.8; Binding of serum 62 to linear peptide (PEPSCAN-ELISA) [4]: 0.7; Binding of serum London to linear peptide (PEPSCAN-ELISA) [4]: 0.5; Binding of serum SARS-green to linear peptide (PEPSCAN-ELISA) [4]: 0.5; Binding of serum SARS-yellow to linear peptide (PEPSCAN-ELISA) [4]: 0.7

# Reference: patent US20070128217A1 (priority 2003, published 2007)
